Experimental data published in patent US6677431B2, “Design, preparation, and properties of antibacterial β-peptides” (The Trustees of the University of Pennsylvania, priority 1999, dated 2004).

Experiments:
[1] = test system: micF-lux fusion; assay: Stress-induced response assay, induction of micF-lux fusion; type: cell-based; conditions: for induction of micF-lux: Group II peptides; for micF gene fusion response: Table 4, regulatory gene Rob
Experimental: Stress-induced response and growth inhibition assays were carried out on samples of four of the β-peptide and compared to known polycationic peptides.
Polymyxin B was tested both rich, LB, medium and defined, M9, medium. The other natural peptides were tested in LB medium.
The β-peptides were tested in M9 medium. * In LB medium (data from Oh et al. Biochem. Biophys. Acta. 2000,1463: 43-54)
However, similar to the magainins, no induction of the micF-lux fusion was observed. Also, the minimum inhibitory concentrations (MIC's) were determined to be higher than those reported in the published manuscript.
Samples of these β-peptides 1 and 2 were evaluated in the stress-induced response assays.
The biolumenescence data result from test carried out according to U.S. Pat. No. 5,683,868, Highly Sensitive Method For Detecting Environmental Insults, issued Nov. 4, 1997 to LaRossa et al., the entire contents of the disclosure of are hereby incorporated by reference, The tests described in this patent permit antibacterial properties of peptides or any other materials to be assessed. […] Along these lines, FIG. 5 illustrates a relationship between relative light units and minutes of exposure of bacteria to the various materials in the legend. P×B represents polymyxin, a known antibacterial material. In the graph, a decrease in RULs corresponds to a decrease in bacteria. […]

[2] = Peptide binding to phospholipid bilayers by CD, SOPC vesicles; conditions: for helix formation on phosphocholin vesicles (POPC and SOPC): CD, model of mammalian cell membrane
[3] = Peptide binding to phospholipid bilayers by CD, SOPS/SOPC (1:9) vesicles; conditions: single site binding fit, 42 (peptide 1) or 52 (peptide 2) lipids per peptide
Experimental: The binding affinity of peptides to phospholipid bilayers was measured using CD spectra of the peptide in the presence of varying lipid vesicle concentrations. Peptides show little structure from CD spectra in water. Upon addition of lipid vesicles, the ellipiticity at 214 nm increased as a consequence of helix formation due to interactions between the peptide and lipid surface. Small unilamellar vesicles (SUV) of SOPC/SOPS were prepared by sonicating lipid large vesicles in 10 mM phosphate buffer, pH 7. CD spectra were taken before and after the addition of aliquots of vesicle to 2 mL peptide solution in 10 mM phosphate buffer, pH 7.
The dissociation constant Kd was determined from equation (1) for single site binding:
[P](R−1)−c/n−Kd+c/(nR)=0 (1)
where [P] and c are peptide and lipid molar concentrations, respectively, n is the number of lipids per peptide binding site. R is the fraction of peptide bound, which can be calculated from equation (2): […]
To get better understanding of the binding mechanism of the peptides to lipid membranes, the dissociation constants (Kd) of peptide 1 and peptide 2 to small unilamellar lipid vesicles (SUV) were measured. Since binding to DPC micelle drives peptide 1 and peptide 2 from random coil conformation to helical conformation, the binding equilibrium can be monitored by CD spectroscopy. […]

SMILES	induction of micF-lux [1]	micF gene fusion response [1]	helix formation on phosphocholin vesicles (POPC and SOPC) [2]	Kd [3] [µM]	Kd ([2]; SOPC LUV) [µM]
CC(C)[C@@H](CC(N)=O)NC(=O)C[C@H](CCCCN)NC(=O)C[C@H](C)NC(=O)C[C@@H](NC(=O)C[C@H](CCCCN)NC(=O)C[C@H](C)NC(=O)C[C@@H](NC(=O)C[C@H](CCCCN)NC(=O)C[C@H](C)NC(=O)C[C@@H](NC(=O)C[C@H](CCCCN)NC(=O)C[C@H](C)N)C(C)C)C(C)C)C(C)C [Peptide 1]	induction	yes	does not show any formation of helix	1.4	–
CC(C)[C@@H](CC(N)=O)NC(=O)C[C@H](CCCCN)NC(=O)C[C@H](C)NC(=O)C[C@@H](NC(=O)C[C@H](CCCCN)NC(=O)C[C@H](C)NC(=O)C[C@@H](NC(=O)C[C@H](CCCCN)NC(=O)C[C@H](C)NC(=O)C[C@@H](NC(=O)C[C@H](CCCCN)NC(=O)C[C@H](C)NC(=O)C[C@@H](NC(=O)C[C@H](CCCCN)NC(=O)C[C@H](C)N)C(C)C)C(C)C)C(C)C)C(C)C [Peptide 2]	induction	yes	shows increase of helix content	0.3	15
